Assay results as given in PubChem BioAssay (NCI).
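Method: 48-hour compound exposure of cells in 96-well plates, five concentrations, linear interpolation of endpoints. Definition used: TGI = concentration required for complete inhibition of growth.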

Assays:
Assay in all cases: DTP human tumour cell line panel, 48 h
786-0 renal = test system: 786-0 renal
A498 renal = test system: A498 renal
DU-145 prostate = test system: DU-145 prostate
HOP-62 NSCLC = test system: HOP-62 NSCLC
HOP-92 NSCLC = test system: HOP-92 NSCLC
HS 578T breast = test system: HS 578T breast
MCF7 breast = test system: MCF7 breast
NCI-H23 lung = test system: NCI-H23 lung
NCI-H460 lung = test system: NCI-H460 lung
OVCAR-4 ovarian = test system: OVCAR-4 ovarian
RXF 393 renal = test system: RXF 393 renal
SK-MEL-28 melanoma = test system: SK-MEL-28 melanoma
SW-620 colon = test system: SW-620 colon
UO-31 renal = test system: UO-31 renal

SMILES	TGI (786-0 renal) [µM]	TGI (A498 renal) [µM]	TGI (DU-145 prostate) [µM]	TGI (HOP-62 NSCLC) [µM]	TGI (HOP-92 NSCLC) [µM]	TGI (HS 578T breast) [µM]	TGI (MCF7 breast) [µM]	TGI (NCI-H23 lung) [µM]	TGI (NCI-H460 lung) [µM]	TGI (OVCAR-4 ovarian) [µM]	TGI (RXF 393 renal) [µM]	TGI (SK-MEL-28 melanoma) [µM]	TGI (SW-620 colon) [µM]	TGI (UO-31 renal) [µM]
O=C(O)CC[N+]1=CCC(c2ccccc2)(c2ccccc2)O1	> 100	> 100	> 100	> 100	> 100	> 100	> 100	> 100	> 100	> 100	> 100	> 100	> 100	> 100
C1CNCCNCCN1	> 100	> 100	> 100	> 100	> 100	> 100	> 100	> 100	> 100	> 100	> 100	> 100	> 100	> 100
O=c1nc2c(c(-c3ccccc3Cl)[nH]1)COC/C2=C\c1ccccc1Cl	> 100	> 100	> 100	> 100	> 100	> 100	> 100	> 100	> 100	> 100	> 100	> 100	> 100	> 100
CC(=O)O[C@H]1CC[C@@]2(C)C(=CC[C@H]3[C@@H]4C[C@H](N5CCCC5)[C@H](OC(C)=O)[C@@]4(C)CC[C@@H]32)C1	> 100	> 100	> 100	> 100	> 100	> 100	> 100	> 100	> 100	> 100	> 100	> 100	> 100	> 100
O=c1c2ncn(COCCCl)c2n(-c2ccccc2)c(=S)n1-c1ccccc1	> 100	> 100	> 100	> 100	> 100	> 100	> 100	> 100	> 100	> 100	> 100	> 100	> 100	> 100
CC(=O)O[C@H]1C#C/C=C\C#CC[C@@H]2C(=O)N[C@@H]12	> 88.3	98.9	62	> 72.6	98.9	> 86.2	> 100	60.9	37.6	> 100	73.3	> 100	> 100	> 62.8
Cc1ccc([C@H]2CC(=O)C[C@H](c3ccc(C)cc3)C23C(=O)c2ccccc2C3=O)cc1	31.7	> 100	> 100	41.8	49.7	58.7	> 100	> 100	> 100	47.2	39	> 100	> 100	> 100
CC1=NN2C(=N)/C(=C/c3ccco3)C(=O)N=C2S1	> 100	> 100	> 100	> 100	> 100	> 100	> 100	> 100	> 100	> 100	> 100	> 100	> 100	> 100
